Reference: patent publication US5849259A, “3-,8-substituted deuteroporphyrin derivatives, pharmaceutical agents containing the latter and process for their production” (priority 1992, dated 1998)

Legend:
[1] = Tissue concentrations by ICP-AES 2 hours after 0.1 mmol/kg i.v. in nude mice with implanted carcinomas (HT29, WiDr, MATLu); type: in vivo, nude mice (Balb/c nu/nu)
Experimental: (§1) f) 9 nude mice (Balb/c nu/nu) with subcutaneously implanted carcinomas (HT29, WiDr and MATLu) were each administered by i.v. 0.1 mmol/kg of the deuteroporphyrin derivative of example 1c (10 mmol/L dissolved in bidistilled water, pH 7.2, 37° C.). After 2 hours, the animals were killed and dissected. The tissue concentrations were determined after corresponding working-up (HNO3 conc.) by ICP-AES and calculated for % of the administered dose per gram of tissue net weight. Moreover, tissue relaxation times T1 and T2 were determined (Bruker minispec pc 120). To determine the blank readings, control animals were correspondingly studied without KM-administration.

[2] = Tissue relaxation times T1 and T2 (Bruker minispec pc 120) after 0.1 mmol/kg i.v.; type: in vivo, nude mice (Balb/c nu/nu)
Experimental: e) 9 nude mice (Balb/c nu/nu) with subcutaneously implanted colon cancers (HT29 and WiDr) were each administered by i.v. 0.1 mmol/kg of the deuteroporphyrin derivative of the compound according to example 1c (10 mmol/l dissolved in bidistilled water, pH 7.2, 37° C.). After 0.5, 3 and 24 hours, the animals were killed and dissected. The tissue concentrations were determined after corresponding working-up (HNO3 conc.) by ICP-AES and calculated for % of the administered dose per gram of tissue net weight. Moreover, tissue relaxation times T1 and T2 were determined (Bruker minispec pc 120).
as §1

Novikoff-hepatoma = test: Signal intensity change in tissues of tumor-bearing (Novikoff-hepatoma, i.m.) nude rats, Bruker Biospec 2.35 Tesla, MSSE; type: in vivo, nude rats (LEW/Mol rnu/rnu); conditions: 0.1 mmol/kg i.v.
Text: The measurements were made with a multi slice single echo sequence (MSSE). […] […] The relative intensities relative to the respective initial intensity (=1.00 set) are indicated.

N,N'-Bis[9-carboxylato-2,5,8-tris(carboxylatomethyl)-2,5,8-triazanonyl-carbamoyl]-mesoporphyrin-IX-13,17-diamide, digadolinium complex, disodium salt [Example 1c]
tissue concentration in prostate cancer (MATLu) versus colon cancers ([1]; 2 hours, 0.1 mmol/kg i.v.): greater than in the colon cancers | tissue concentration, kidneys ([1]; HT29 mice, 2 hours): 6.23 ± 1.80 % of the administered dose per gram of tissue net weight | tissue concentration, kidneys ([1]; MATLu mice, 2 hours): 2.73 ± 0.33 % of the administered dose per gram of tissue net weight | tissue concentration, kidneys ([1]; WiDr mice, 2 hours): 4.23 ± 0.19 % of the administered dose per gram of tissue net weight | tissue concentration, HT29 tumor ([1]; mouse, in vivo, iv, 2 h): 1.00 ± 0.27 % of the administered dose per gram of tissue net weight | tissue concentration, MATLu tumor ([1]; mouse, in vivo, iv, 2 h): 1.92 ± 2.09 % of the administered dose per gram of tissue net weight | tissue concentration, WiDr tumor ([1]; mouse, in vivo, iv, 2 h): 0.83 ± 0.05 % of the administered dose per gram of tissue net weight | tissue relaxation time T1, HT29 tumor ([2]; 0.5 hour): 410 ± 30 ms | tissue relaxation time T1, WiDr tumor ([2]; 0.5 hour): 320 ± 40 ms | tissue relaxation time T1, kidneys ([2]; 0.5 hour): 160 ± 10 ms | tissue relaxation time T1, liver ([2]; 0.5 hour): 220 ± 20 ms | tissue relaxation time T1, muscle ([2]; 0.5 hour): 500 ± 40 ms | tissue relaxation time T2, HT29 tumor ([2]; 0.5 hour): 81 ± 4 ms | tissue relaxation time T2, WiDr tumor ([2]; 0.5 hour): 67 ± 7 ms | tissue relaxation time T2, kidneys ([2]; 0.5 hour): 42 ± 1 ms | tissue relaxation time T2, liver ([2]; 0.5 hour): 34 ± 3 ms | tissue relaxation time T2, muscle ([2]; 0.5 hour): 32 ± 1 ms | effect on tissue relaxation times in prostate cancer (MATLu) versus colon cancers ([2]; 2 hours): greater than in the colon cancers | tissue relaxation time T1, HT29 tumor ([2]; 2 hours): 375 ± 32 ms | tissue relaxation time T1, MATLu ([2]; 2 hours): 361 ± 65 ms | tissue relaxation time T1, WiDr tumor ([2]; 2 hours): 358 ± 70 ms | tissue relaxation time T2, HT29 tumor ([2]; 2 hours): 94 ± 7 ms | tissue relaxation time T2, MATLu ([2]; 2 hours): 102 ± 10 ms | tissue relaxation time T2, WiDr tumor ([2]; 2 hours): 110 ± 9 ms | tissue relaxation time T1, HT29 tumor ([2]; 3 hours): 440 ± 70 ms | tissue relaxation time T1, WiDr tumor ([2]; 3 hours): 430 ± 50 ms | tissue relaxation time T1, kidneys ([2]; 3 hours): 230 ± 30 ms | tissue relaxation time T1, liver ([2]; 3 hours): 220 ± 30 ms | tissue relaxation time T1, muscle ([2]; 3 hours): 560 ± 40 ms | tissue relaxation time T2, HT29 tumor ([2]; 3 hours): 72 ± 8 ms | tissue relaxation time T2, WiDr tumor ([2]; 3 hours): 72 ± 7 ms | tissue relaxation time T2, kidneys ([2]; 3 hours): 47 ± 5 ms | tissue relaxation time T2, liver ([2]; 3 hours): 42 ± 2 ms | tissue relaxation time T2, muscle ([2]; 3 hours): 36 ± 3 ms | tissue relaxation time T1, HT29 tumor ([2]; 24 hours): 540 ± 20 ms | tissue relaxation time T1, WiDr tumor ([2]; 24 hours): 640 ± 10 ms | tissue relaxation time T1, kidneys ([2]; 24 hours): 240 ± 20 ms | tissue relaxation time T1, liver ([2]; 24 hours): 260 ± 10 ms | tissue relaxation time T1, muscle ([2]; 24 hours): 660 ± 10 ms | tissue relaxation time T2, HT29 tumor ([2]; 24 hours): 83 ± 7 ms | tissue relaxation time T2, WiDr tumor ([2]; 24 hours): 85 ± 2 ms | tissue relaxation time T2, kidneys ([2]; 24 hours): 54 ± 10 ms | tissue relaxation time T2, liver ([2]; 24 hours): 48 ± 7 ms | tissue relaxation time T2, muscle ([2]; 24 hours): 31 ± 1 ms | shortening of T1 tissue relaxation times, all three tumors ([2]; HT29, WiDr, MATLu, 2 hours): 2-3 factor | shortening of T1 tissue relaxation times, both tumors ([2]; HT29 and WiDr): 2-3 factor | tissue relaxation time T1, kidneys ([2]; HT29 mice, 2 hours): 150 ± 12 ms | tissue relaxation time T1, liver ([2]; HT29 mice, 2 hours): 174 ± 8 ms | tissue relaxation time T1, muscle ([2]; HT29 mice, 2 hours): 489 ± 57 ms | tissue relaxation time T2, kidneys ([2]; HT29 mice, 2 hours): 59 ± 3 ms | tissue relaxation time T2, liver ([2]; HT29 mice, 2 hours): 49 ± 2 ms | tissue relaxation time T2, muscle ([2]; HT29 mice, 2 hours): 56 ± 2 ms | tissue relaxation time T1, kidneys ([2]; MATLu mice, 2 hours): 171 ± 20 ms | tissue relaxation time T1, liver ([2]; MATLu mice, 2 hours): 191 ± 10 ms | tissue relaxation time T1, muscle ([2]; MATLu mice, 2 hours): 506 ± 10 ms | tissue relaxation time T2, kidneys ([2]; MATLu mice, 2 hours): 60 ± 1 ms | tissue relaxation time T2, liver ([2]; MATLu mice, 2 hours): 51 ± 2 ms | tissue relaxation time T2, muscle ([2]; MATLu mice, 2 hours): 54 ± 2 ms | tissue relaxation time T1, kidneys ([2]; WiDr mice, 2 hours): 159 ± 30 ms | tissue relaxation time T1, liver ([2]; WiDr mice, 2 hours): 180 ± 30 ms | tissue relaxation time T1, muscle ([2]; WiDr mice, 2 hours): 508 ± 40 ms | tissue relaxation time T2, kidneys ([2]; WiDr mice, 2 hours): 64 ± 2 ms | tissue relaxation time T2, liver ([2]; WiDr mice, 2 hours): 53 ± 5 ms | tissue relaxation time T2, muscle ([2]; WiDr mice, 2 hours): 62 ± 3 ms | elimination route (Novikoff-hepatoma): eliminated mainly renally | average enhancement, Kidneys (Novikoff-hepatoma; 1 min): 1.67 ± 0.35 | average enhancement, Liver (Novikoff-hepatoma; 1 min): 1.43 ± 0.24 | average enhancement, Muscle (Novikoff-hepatoma; 1 min): 1.60 ± 0.01 | average enhancement, Tumor (Novikoff-hepatoma; 1 min): 1.63 ± 0.24 | average enhancement, Kidneys (Novikoff-hepatoma; 15 min): 2.13 ± 0.28 | average enhancement, Liver (Novikoff-hepatoma; 15 min): 1.34 ± 0.22 | average enhancement, Muscle (Novikoff-hepatoma; 15 min): 1.54 ± 0.06 | average enhancement, Tumor (Novikoff-hepatoma; 15 min): 1.71 ± 0.19 | average enhancement, Kidneys (Novikoff-hepatoma; 30 min): 2.14 ± 0.38 | average enhancement, Liver (Novikoff-hepatoma; 30 min): 1.31 ± 0.21 | average enhancement, Muscle (Novikoff-hepatoma; 30 min): 1.47 ± 0.08 | average enhancement, Tumor (Novikoff-hepatoma; 30 min): 1.72 ± 0.23 | average enhancement, Kidneys (Novikoff-hepatoma; 45 min): 2.10 ± 0.30 | average enhancement, Liver (Novikoff-hepatoma; 45 min): 1.17 ± 0.16 | average enhancement, Muscle (Novikoff-hepatoma; 45 min): 1.41 ± 0.10 | average enhancement, Tumor (Novikoff-hepatoma; 45 min): 1.79 ± 0.21 | average enhancement, Kidneys (Novikoff-hepatoma; 60 min): 2.12 ± 0.19 | average enhancement, Liver (Novikoff-hepatoma; 60 min): 1.31 ± 0.09 | average enhancement, Muscle (Novikoff-hepatoma; 60 min): 1.33 ± 0.05 | average enhancement, Tumor (Novikoff-hepatoma; 60 min): 1.78 ± 0.24 | average enhancement, Kidneys (Novikoff-hepatoma; 75 min): 1.93 ± 0.19 | average enhancement, Liver (Novikoff-hepatoma; 75 min): 1.37 ± 0.05 | average enhancement, Muscle (Novikoff-hepatoma; 75 min): 1.37 ± 0.01 | average enhancement, Tumor (Novikoff-hepatoma; 75 min): 1.64 ± 0.17 | average enhancement, Kidneys (Novikoff-hepatoma; 90 min): 1.96 ± 0.08 | average enhancement, Liver (Novikoff-hepatoma; 90 min): 1.22 ± 0.24 | average enhancement, Muscle (Novikoff-hepatoma; 90 min): 1.24 ± 0.03 | average enhancement, Tumor (Novikoff-hepatoma; 90 min): 1.75 ± 0.27 | average enhancement, Kidneys (Novikoff-hepatoma; 120 min): 1.92 ± 0.33 | average enhancement, Liver (Novikoff-hepatoma; 120 min): 1.23 ± 0.07 | average enhancement, Muscle (Novikoff-hepatoma; 120 min): 1.28 ± 0.08 | average enhancement, Tumor (Novikoff-hepatoma; 120 min): 1.77 ± 0.23 | average enhancement, Kidneys (Novikoff-hepatoma; 150 min): 1.86 ± 0.18 | average enhancement, Liver (Novikoff-hepatoma; 150 min): 1.16 ± 0.22 | average enhancement, Muscle (Novikoff-hepatoma; 150 min): 1.20 ± 0.06 | average enhancement, Tumor (Novikoff-hepatoma; 150 min): 1.73 ± 0.23 | average enhancement, Kidneys (Novikoff-hepatoma; 180 min): 1.84 ± 0.24 | average enhancement, Liver (Novikoff-hepatoma; 180 min): 1.07 ± 0.20 | average enhancement, Muscle (Novikoff-hepatoma; 180 min): 1.15 ± 0.04 | average enhancement, Tumor (Novikoff-hepatoma; 180 min): 1.85 ± 0.09 | average enhancement, Kidneys (Novikoff-hepatoma; 190 min): 1.73 ± 0.00 | average enhancement, Liver (Novikoff-hepatoma; 190 min): 1.27 ± 0.00 | average enhancement, Muscle (Novikoff-hepatoma; 190 min): 1.21 ± 0.00 | average enhancement, Tumor (Novikoff-hepatoma; 190 min): 1.45 ± 0.00 | signal intensity, liver and muscles (Novikoff-hepatoma; after 2-3 hours): the initial intensity almost returned | increase in the intensity, studied tissues (Novikoff-hepatoma; directly after administration): ~60% | signal intensity, tumor (Novikoff-hepatoma; during the observation time): remained at an almost unchanged high level | signal intensity, kidneys relative to tumors (Novikoff-hepatoma; up to 150 minutes): high above that which could be determined in the tumors
